Measurements reported in US20240217957A1, “HETEROCYCLIC COMPOUND AND USE THEREOF” (TAKEDA PHARMACEUTICAL COMPANY LIMITED, priority 2022, published 2024).

molecular target: T1, human OX2 receptor (Homo sapiens, UniProt O43614); test: Measurement of orexin type 2 receptor agonist activity (calcium fluorescence, Fluo-4 AM, FDSS); assay type: cell-based; details: compound at 3 μM; CHO cells forcibly expressing human OX2 receptor; DMSO = 0%, 10 nM orexin A (human) = 100%
T1 construct: expressed in transfected cells
T1 sequence (O43614 1-444): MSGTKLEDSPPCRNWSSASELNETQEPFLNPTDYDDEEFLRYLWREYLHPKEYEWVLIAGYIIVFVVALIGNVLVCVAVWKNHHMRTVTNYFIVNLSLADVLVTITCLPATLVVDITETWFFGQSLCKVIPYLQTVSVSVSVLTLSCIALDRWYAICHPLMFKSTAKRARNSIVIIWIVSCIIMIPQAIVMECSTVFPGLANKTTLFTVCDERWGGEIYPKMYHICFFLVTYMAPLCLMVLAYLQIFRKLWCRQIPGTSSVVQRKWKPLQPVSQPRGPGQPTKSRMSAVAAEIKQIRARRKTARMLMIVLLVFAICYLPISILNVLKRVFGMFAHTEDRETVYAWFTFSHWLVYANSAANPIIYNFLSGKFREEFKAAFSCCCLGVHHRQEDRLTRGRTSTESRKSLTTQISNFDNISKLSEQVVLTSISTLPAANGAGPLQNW
Method in brief: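 Agonist response is expressed as % of the fluorescence change given by 10 nM human orexin A, with DMSO as 0%, read over 1 min 40 s on FDSS after compound addition. Cells: stable human OX2 (1-444) CHO-K1 clones, dye-loaded with Fluo-4 AM plus probenecid in HEPES-buffered HBSS with 0.1% BSA.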

| OX2R agonist activity (3 μM, %) | SMILES |
| --- | --- |
| 97% | Cc1cnc(C2(CF)CC(N3C[C@H](F)[C@H](NS(C)(=O)=O)C3)=NO2)c(-c2c(F)cccc2F)n1 (stereo partly drawn) [Example 105, N-[(3R,4S)-1-{5-[3-(2,6-difluorophenyl)-5-methylpyrazin-2-yl]-5-(fluoromethyl)-4,5-dihydro-1,2-oxazol-3-yl}-4-fluoropyrrolidin-3-yl]methanesulfonamide] |
| 108% | Cc1ccc(C2CC(N3C[C@@H](NS(C)(=O)=O)C(F)(F)C3)=NO2)c(-c2ncc(F)cc2F)c1 (stereo partly drawn) [Example 106, N-[(3R)-1-{5-[2-(3,5-difluoropyridin-2-yl)-4-methylphenyl]-4,5-dihydro-1,2-oxazol-3-yl}-4,4-difluoropyrrolidin-3-yl]methanesulfonamide] |
| 105% | Cc1cnc(C2(CF)CC(N3C[C@@H](NS(C)(=O)=O)C(F)(F)C3)=NO2)c(-c2c(F)cccc2F)c1 (stereo partly drawn) [Example 108, N-[(3R)-1-{5-[3-(2,6-difluorophenyl)-5-methylpyridin-2-yl]-5-(fluoromethyl)-4,5-dihydro-1,2-oxazol-3-yl}-4,4-difluoropyrrolidin-3-yl]methanesulfonamide] |
| 100% | Cc1cnc(C2(CF)CC(N3C[C@H](F)[C@H](NS(C)(=O)=O)C3)=NO2)c(-c2c(F)cc(F)cc2F)c1 (stereo partly drawn) [Example 110, N-[(3R,4S)-4-fluoro-1-{5-(fluoromethyl)-5-[5-methyl-3-(2,4,6-trifluorophenyl)pyridin-2-yl]-4,5-dihydro-1,2-oxazol-3-yl}pyrrolidin-3-yl]methanesulfonamide] |
| 102% | CS(=O)(=O)N[C@@H]1CN(C2=NOC(c3ccc(F)cc3-c3c(F)cccc3F)C2)CC1(F)F (stereo partly drawn) [Example 111, N-{(3R)-4,4-difluoro-1-[5-(2′,5,6′-trifluoro[1,1′-biphenyl]-2-yl)-4,5-dihydro-1,2-oxazol-3-yl]pyrrolidin-3-yl}methanesulfonamide] |
| 98% | CS(=O)(=O)N[C@@H]1CN(C2=NOC(c3ncc(Cl)cc3-c3c(F)cc(F)cc3F)C2)C[C@@H]1F (stereo partly drawn) [Example 112, N-[(3R,4S)-1-{5-[5-chloro-3-(2,4,6-trifluorophenyl)pyridin-2-yl]-4,5-dihydro-1,2-oxazol-3-yl}-4-fluoropyrrolidin-3-yl]methanesulfonamide] |
| 100% | CS(=O)(=O)N[C@@H]1CN(C2=NOC(CF)(c3ncc(F)cc3-c3c(F)cc(F)cc3F)C2)C[C@@H]1F (stereo partly drawn) [Example 113, N-[(3R,4S)-4-fluoro-1-{5-(fluoromethyl)-5-[5-fluoro-3-(2,4,6-trifluorophenyl)pyridin-2-yl]-4,5-dihydro-1,2-oxazol-3-yl}pyrrolidin-3-yl]methanesulfonamide] |
| 87% | Cc1ccc(C2CC(N3C[C@@H](NS(C)(=O)=O)C(F)(F)C3)=NO2)c(-c2c(F)cccc2F)n1 (stereo partly drawn) [Example 114, N-[(3R)-1-{5-[2-(2,6-difluorophenyl)-6-methylpyridin-3-yl]-4,5-dihydro-1,2-oxazol-3-yl}-4,4-difluoropyrrolidin-3-yl]methanesulfonamide] |
| 100% | CCS(=O)(=O)N[C@@H]1CN(C2=NOC(CF)(c3ncc(Cl)cc3-c3c(F)cccc3F)C2)C[C@@H]1F (stereo partly drawn) [Example 115, N-[(3R,4S)-1-{5-[5-chloro-3-(2,6-difluorophenyl)pyridin-2-yl]-5-(fluoromethyl)-4,5-dihydro-1,2-oxazol-3-yl}-4-fluoropyrrolidin-3-yl]ethanesulfonamide] |
| 100% | CS(=O)(=O)N[C@@H]1CN(C2=NOC(CF)(c3ncc(F)cc3-c3c(F)cccc3F)C2)C[C@@H]1F (stereo partly drawn) [Example 116, N-[(3R,4S)-1-{5-[3-(2,6-difluorophenyl)-5-fluoropyridin-2-yl]-5-(fluoromethyl)-4,5-dihydro-1,2-oxazol-3-yl}-4-fluoropyrrolidin-3-yl]methanesulfonamide] |
| 100% | CC1(c2ncc(F)cc2-c2c(F)cccc2F)CC(N2C[C@H](F)[C@H](NS(C)(=O)=O)C2)=NO1 (stereo partly drawn) [Example 118, N-[(3R,4S)-1-{5-[3-(2,6-difluorophenyl)-5-fluoropyridin-2-yl]-5-methyl-4,5-dihydro-1,2-oxazol-3-yl}-4-fluoropyrrolidin-3-yl]methanesulfonamide] |
| 101% | CS(=O)(=O)N[C@@H]1CN(C2=NOC(c3ccc(F)cc3-c3c(F)cccc3F)C2)C[C@@H]1F (stereo partly drawn) [Example 119, N-{(3R,4S)-4-fluoro-1-[5-(2′,5,6′-trifluoro[1,1′-biphenyl]-2-yl)-4,5-dihydro-1,2-oxazol-3-yl]pyrrolidin-3-yl}methanesulfonamide] |
| 102% | CN(C)S(=O)(=O)N[C@@H]1CN(C2=NOC(c3ncc(F)cc3-c3c(F)cc(F)cc3F)C2)C[C@@H]1F (stereo partly drawn) [Example 120, N′-[(3R,4S)-4-fluoro-1-{5-[5-fluoro-3-(2,4,6-trifluorophenyl)pyridin-2-yl]-4,5-dihydro-1,2-oxazol-3-yl}pyrrolidin-3-yl]-N,N-dimethylsulfuric diamide] |
| 98% | CN(C)S(=O)(=O)N[C@@H]1CN(C2=NOC(c3ncc(Cl)cc3-c3c(F)cccc3F)C2)C[C@@H]1F (stereo partly drawn) [Example 121, N′-[(3R,4S)-1-{5-[5-chloro-3-(2,6-difluorophenyl)pyridin-2-yl]-4,5-dihydro-1,2-oxazol-3-yl}-4-fluoropyrrolidin-3-yl]-N,N-dimethylsulfuric diamide] |
| 102% | CC1(c2ncc(F)cc2-c2c(F)cccc2F)CC(N2CC[C@H](NS(C)(=O)=O)C2)=NO1 (stereo partly drawn) [Example 122, N-[(3S)-1-{5-[3-(2,6-difluorophenyl)-5-fluoropyridin-2-yl]-5-methyl-4,5-dihydro-1,2-oxazol-3-yl}pyrrolidin-3-yl]methanesulfonamide] |
| 100% | CN(C)S(=O)(=O)N[C@@H]1CN(C2=NOC(c3ccc(Cl)cc3-c3ncc(F)cc3F)C2)C[C@@H]1F (stereo partly drawn) [Example 123, N′-[(3R,4S)-1-{5-[4-chloro-2-(3,5-difluoropyridin-2-yl)phenyl]-4,5-dihydro-1,2-oxazol-3-yl}-4-fluoropyrrolidin-3-yl]-N,N-dimethylsulfuric diamide] |
| 97% | Cc1ccc(C2CC(N3C[C@H](F)[C@H](NS(C)(=O)=O)C3)=NO2)c(-c2ncc(F)cc2F)c1 (stereo partly drawn) [Example 124, N-[(3R,4S)-1-{5-[2-(3,5-difluoropyridin-2-yl)-4-methylphenyl]-4,5-dihydro-1,2-oxazol-3-yl}-4-fluoropyrrolidin-3-yl]methanesulfonamide] |
| 104% | Cc1ccc(C2CC(N3C[C@H](F)[C@H](NS(=O)(=O)N(C)C)C3)=NO2)c(-c2ncc(F)cc2F)c1 (stereo partly drawn) [Example 125, N′-[(3R,4S)-1-{5-[2-(3,5-difluoropyridin-2-yl)-4-methylphenyl]-4,5-dihydro-1,2-oxazol-3-yl}-4-fluoropyrrolidin-3-yl]-N,N-dimethylsulfuric diamide] |
| 98% | CS(=O)(=O)N[C@@H]1CN(C2=NOC(c3ncc(F)cc3-c3c(F)cccc3F)(C(F)F)C2)CC1(F)F (stereo partly drawn) [Example 126, N-[(3R)-1-{5-(difluoromethyl)-5-[3-(2,6-difluorophenyl)-5-fluoropyridin-2-yl]-4,5-dihydro-1,2-oxazol-3-yl}-4,4-difluoropyrrolidin-3-yl]methanesulfonamide] |
| 100% | Cc1cc(-c2c(F)cccc2F)c(C2CC(N3C[C@@H](NS(C)(=O)=O)C(F)(F)C3)=NO2)cn1 (stereo partly drawn) [Example 127, N-[(3R)-1-{5-[4-(2,6-difluorophenyl)-6-methylpyridin-3-yl]-4,5-dihydro-1,2-oxazol-3-yl}-4,4-difluoropyrrolidin-3-yl]methanesulfonamide] |
| 105% | O=S(=O)(CF)N[C@@H]1CN(C2=NO[C@H](c3ncc(F)cc3-c3c(F)cc(F)cc3F)C2)CC1(F)F [Example 128, N-[(3R)-4,4-difluoro-1-{(5S)-5-[5-fluoro-3-(2,4,6-trifluorophenyl)pyridin-2-yl]-4,5-dihydro-1,2-oxazol-3-yl}pyrrolidin-3-yl]-1-fluoromethanesulfonamide] |
| 102% | CS(=O)(=O)N[C@@H]1CN(C2=NOC(CF)(c3ncc(Cl)cc3-c3c(F)cccc3F)C2)C[C@@H]1F (stereo partly drawn) [Example 129, N-[(3R,4S)-1-{5-[5-chloro-3-(2,6-difluorophenyl)pyridin-2-yl]-5-(fluoromethyl)-4,5-dihydro-1,2-oxazol-3-yl}-4-fluoropyrrolidin-3-yl]methanesulfonamide] |
| 104% | CCC1(c2ncc(F)cc2-c2c(F)cccc2F)CC(N2C[C@@H](NS(C)(=O)=O)C(F)(F)C2)=NO1 (stereo partly drawn) [Example 130, N-[(3R)-1-{5-[3-(2,6-difluorophenyl)-5-fluoropyridin-2-yl]-5-ethyl-4,5-dihydro-1,2-oxazol-3-yl}-4,4-difluoropyrrolidin-3-yl]methanesulfonamide] |
| 112% | COCC1(c2ncc(F)cc2-c2c(F)cccc2F)CC(N2C[C@@H](NS(C)(=O)=O)C(F)(F)C2)=NO1 (stereo partly drawn) [Example 131, N-[(3R)-1-{5-[3-(2,6-difluorophenyl)-5-fluoropyridin-2-yl]-5-(methoxymethyl)-4,5-dihydro-1,2-oxazol-3-yl}-4,4-difluoropyrrolidin-3-yl]methanesulfonamide] |
